Consider 8 substances from US7176280B2, “Isolated polypeptides and compositions from the venom of P. transvaalicus and methods of use” (The Regents of the University of California, priority 2001, dated 2007).

“Also recorded” adds a separate entry of the source. No end group written: not given here.

The subject of data set [1] is Blowfly (Sarcophaga spp.) larvae. Briefly: Blowfly larvae injection bioassay. It is filed as in vivo. The following applies: for activity against blowfly (Sarcophaga) larvae (in words): injection into larvae. As to the method: Uctoxin HPLC Purification: Uctoxin was purified through three steps of RP-HPLC guided by insect and mouse bioassays. Initially the venom of P.transvaalicus was resuspended in solvent A (2% acetonitrile 98% water 0.1% TFA) and ran multiple times through a C4 magic bullet column hooked up to a Magic 2002 microbore HPLC System with a linear gradient of 2 to 65% solvent B (98% acetonitrile 2% water 0.1% TFA) in 15 minutes at a flow rate of 300 μL/min. as described above for ikitoxon. UV trace at 214 and 280 nm was monitored. Fraction P3 from the first column was collected, several runs were pooled and freeze dried. This fraction was run on a Michrom C18 microbore column on the same system with a linear gradient of 2 to 65% solvent B in 30 minutes at a flow rate of 50 μL/min. Peak 2 from the C18 column was further purified by running it through a microbore phenyl column on the same system with the same gradient conditions. Purity was confirmed using MALDI-TOF MS. Biological activity of peptide was monitored by intracerebroventricular injection of mice and also injections of blowfly and tobacco budworm larvae. For bioassays uctoxin was purified and resuspended in 20 mM ammonium acetate buffer with 1 ug/ul BSA. (The 50% effective doses (ED50) were determined according to Reed and Muench (Reed L. J., Muench, S. 1938 Am.J.Hyg 27, 493–497.))
(§1) Bioassays: Male Swiss-Webster mice were purchased from Charles River, Inc., and housed at the Animal Housing Facility, UC Davis. Blowfly (Sarcophaga spp.), crickets (Acheta domesticus) and Anole lizards (Anoles caroliensis) were purchased from Carolina Biologicals (Burlington, N.C.). Cotton bollworms (Heliothis virescens) were obtained from USDA/ARS (Stoneville, […].) and reared on artificial diet. Collected fractions were tested on mice by intracerebroventricular injections and by injecting last instar blowfly larvae. Third instar cotton bollworms and adult common house crickets were also used in screening for insecticidal components. Briefly, fractions were concentrated to dryness using a Heto Speed Vac (ATR, Inc. Emeryville, Calif.). Dried samples were resuspended in 10 μl 20 mM ammonium acetate buffer with 1 μg/μl BSA and incubated overnight at 4° C. to insure proper refolding before injection to the test animals. Mice were anesthetized using ethyl ether and intracerebroventricular injections of peptide solutions were executed immediately. […] All symptoms were observed and recorded up to 24 hours post injection. All experiments were carried out in accordance with the guidelines laid down by the National Institutes of Health in the USA regarding the care and use of experimental animals.
The biological activities of dortoxin, bestoxin, and ikitoxin were evaluated in blowfly larvae, tobacco budworm larvae, and mice. Blowfly larvae, tobacco budworm larvae were injected with 1 μL of fraction or toxin solution in water. The effects were observed and recorded up to 24 hrs post injection. The toxins to were also injected to mice (swiss-webster male 4–6 week old mice) through an intracerebroventricular route (brain). The mice were anesthetized using ethyl ether then injected with various doses of 5 μL of test solution. The effects were again observed and recorded up to 24 hrs post injection. […] The MALDI determined molecular masses for dortoxin (6643 Da) and bestoxin (6603 Da) also agree with the two amino acid difference of Lys20 in dortoxin to Glu20 in bestoxin and Glu45 in dortoxin to Ser45 in bestoxin.

Data set [2] relates to Male Swiss-Webster mice. As to the kind of experiment: Mouse injection bioassay (intracerebroventricular; also subcutaneous, intraperitoneal). It is filed as in vivo. The following applies: for symptoms in injected mice (in words): intracerebroventricular injection, dose not given or as in the words; for symptoms in mice: 7–8 week old male Swiss-Webster mice; for Mouse (IC) high dose / Mouse (IC) low dose: preliminary biological activity. As to the method:
as §1
Next, the biological activities of Ikitoxin and Birtoxin were compared. Mouse biological activity was evaluated by intracerebroventricular injections of 7–8 week old male Swiss-Webster mice using […] purified toxin.
The biological activities of dortoxin, bestoxin, and ikitoxin were evaluated in blowfly larvae, tobacco budworm larvae, and mice. Blowfly larvae, tobacco budworm larvae were injected with 1 μL of fraction or toxin solution in water. The effects were observed and recorded up to 24 hrs post injection. The toxins to were also injected to mice (swiss-webster male 4–6 week old mice) through an intracerebroventricular route (brain). The mice were anesthetized using ethyl ether then injected with various doses of 5 μL of test solution. The effects were again observed and recorded up to 24 hrs post injection. […] The experiments were terminated after 48 hrs of observation. […] Bestoxin is only two amino acid different from its sister peptide dortoxin. The MALDI determined molecular masses for dortoxin (6643 Da) and bestoxin (6603 Da) also agree with the two amino acid difference of Lys20 in dortoxin to Glu20 in bestoxin and Glu45 in dortoxin to Ser45 in bestoxin.

For the next data set, the system named is Insect Lepidoptera. As to the kind of experiment: Parakinin in vivo assay on Lepidoptera. The following applies: preliminary biological activity. The source says:
The preliminary biological activity of parakinins I investigated by in vivo assays conducted on insects and mice. Parakinins are active and potent against both invertebrates and vertebrates. These in vivo effects implicate potential pharmaceutical use and development. Due to the small nature of parakinins analogs of these peptides can be synthesized and tested very rapidly.

Data set [3] concerns Male Swiss-Webster mice. Briefly: Mouse injection bioassay (intracerebroventricular; also subcutaneous, intraperitoneal). It counts as in vivo. The following applies: preliminary biological activity.
Another data set concerns rat brain synaptosomes. It is filed as binding. The following applies: for EC50: read-out: EC50 (effective concentration).
Data set [4] deals with sodium channel binding site 3. Briefly: Ion channel binding properties of birtoxin.
For data set [5] the following is noted: cited from earlier work.
Setting [6] is: intracerebroventricular, 0.2–1 mg purified toxin.

“ikitoxin (ADVPGNYPLDKDGNTYKCFLLGENEECLNVCKLHGVQYGYCYASKCWCEYLEDDKDVS; listed as Parabuthus transvaalicus)”: in data set [1], the “activity against blowfly (Sarcophaga) larvae (in words)” value (from here on “activity against blowfly”) is on record as “not active against Sarcophaga”. In addition, the “symptoms in injected mice (in words)” value with Male Swiss-Webster mice [2] is reported as “induced periodic unprovoked jumps in injected mice”. In addition, in the data set with Male Swiss-Webster mice [2] (setting [6]), the “time course of the symptom” value is on record as “Within three hours of injection the symptom gradually faded” and the symptoms in mice entry was “periodic unprovoked jumps”. Moreover, the “initial frequency of unprovoked jumps” value in the data set on Male Swiss-Webster mice [2] (intracerebroventricular, 0.2–1 mg purified toxin, for 20 minutes) is “about 3 jumps per minute”. In the data set with Male Swiss-Webster mice [2] (intracerebroventricular, range of injected doses 0.2–1 mg), the “lethality during the observation period” value was “did not show lethality”.

For the substance “parakinin-1 (PFIVPPFR; listed as Parabuthus transvaalicus)”, the “Insect Lepidoptera” value in the data set on Insect Lepidoptera is listed as “Contractive paralysis”. Moreover, in data set [1] (preliminary biological activity), the Insect blowfly result is listed as “Contractive paralysis”. In the data set on Male Swiss-Webster mice [3], the “Mouse (SC)” value is given as “Hyperventilation,; also recorded: Hyperactivity”. In addition, in the data set with Male Swiss-Webster mice [2], the “Mouse (IC) high dose” value was “Paralysis” and the “Mouse (IC) low dose” value was “Hyperventilation,; also recorded: Hyperactivity”.

In the case of “parakinin-2 (PFVVPPFR; listed as Parabuthus transvaalicus)”, the “Mouse (SC)” value in the data set on Male Swiss-Webster mice [3] is listed as “Hyperactivity”. In the data set on Male Swiss-Webster mice [2], the “Mouse (IC) high dose” value is listed as “Paralysis” and the “Mouse (IC) low dose” value is “Hyperventilation,; also recorded: Hyperactivity”.

For the substance “bestoxin (ADVPGNYPLDKDGNTYTCLELGENKDCQKVCKLHGVQYGYCYAFSCWCKEYLDDKDSV; listed as Parabuthus transvaalicus)”, in the data set on Male Swiss-Webster mice [2] (intracerebroventricular), the “sensitivity to stimuli of injected mice” value is “hypersensitive to stimuli”; the “state of the mice at the end of 48 hrs” value was “still live, dessicated, and exhausted but still continued to roll”. For the same substance, in the data set with Male Swiss-Webster mice [2], the “symptoms in injected mice (in words)” value was “contract, twist and roll around itself indefinitely”.

Regarding “birtoxin (ADVPGNYPLDKDGNTYKCFLLGGNEECLNVCKLHGVQYGYCYASKCWCEYLEDDKDVS; not fully specified; ends and bridges not checked)”, in the data set with rat brain synaptosomes, the “enhancement of the binding of [3H] BTX” value is listed as “about 4.32 fold” and the EC50 is approximately 5 nM. Also, in data set [4], the “sodium channel binding site and mode of action” value was “binds to sodium channel binding site 3 and blocks the sodium channel by prolonging the inactivation”. Further, in the data set with Male Swiss-Webster mice [2] (1 μg of pure birtoxin), the “effect of injection in mice” value is listed as “induced severe neurotoxic symptoms in mice up to 24 hours but was not lethal”. For the same substance, the “effect of injection in mice” value in the data set on Male Swiss-Webster mice [2] (2 μg of pure peptide) is “lethal”. Also, the “symptoms in injected mice (in words)” value with Male Swiss-Webster mice [2] is “induced serious symptoms, including tremors, which lasted up to 24 hours post injection at submicrogram amounts”. Also, the symptoms in mice result with Male Swiss-Webster mice [2] (setting [6]) was “convulsions, tremors, increased heart rate and finally death”. Also, the “lethality to mice (summary statement)” value in the data set on Male Swiss-Webster mice [2] (mouse, in vivo) is reported as “lethal to mice at low microgram quantities”.

Consider RPPGFSPFR [bradykinin], for which the “destroyed on a single passage through the pulmonary circulation” value in data set [5] (anesthetized rat) is on record as 98%–99%. For the same substance, in data set [5] (rat, in vivo), the “half life in the systemic circulation” value is listed as “less than 30 seconds”.

As for uctoxin, the “activity against blowfly” value in data set [1] is given as “bioactivity only in the case of the first major peak”. For the same substance, the “activity against blowfly” value in data set [1] (listed as Uctoxin) is reported as “immediate flaccid paralysis”. Besides, the ED50 entry in data set [1] (last instar Sarcophaga larvae, flaccid paralysis) was “about 70 ng/100 mg larvae”. In the data set with rat brain synaptosomes, the “enhancement of the binding of [3H] BTX” value was determined as 2 fold and the EC50 was approximately 60 nM. In addition, the “symptoms in injected mice (in words)” value in the data set on Male Swiss-Webster mice [2] is “consistent contraction and tremors”. For the same substance, in the data set on Male Swiss-Webster mice [2] (intracerebroventricular, 0.5 μg of uctoxin), the time to lethality is not above 30 min.

Turning to “dortoxin (ADVPGNYPLDKDGNTYTCLKLGENKDCQKVCKLHGVQYGYCYAFECWCKEYLDDKDSV; listed as Parabuthus transvaalicus)”, the “symptoms in injected mice (in words)” value with Male Swiss-Webster mice [2] was “convulsions, tremors and death”. Moreover, the LD99 in the data set on Male Swiss-Webster mice [2] (intracerebroventricular, Swiss-Webster male 4–6 week old mice) is < 0.5 μg/20 gr of mouse.
